Read-outs that look alike come from different tables or passages of the source. Starred links: 1 amine or outer side, 2 acyl side, 3 side chain; linkers in the order of their positions; H or OH if unused. Positions of bridges follow the written chain, without caps; N, C: chain ends. Non-standard residues stand in square brackets, D forms with d. Residues, ends and D or L forms follow the SMILES beside them. Chains are numbered I, II in the order given. Actinocin(9to1) = Cc1c2oc3c(C)ccc(C(=O)[*:1])c3nc-2c(C(=O)[*:2])c(N)c1=O; NMeV = CN[C@H](C(=O)O)C(C)C; Sar = CNCC(=O)O
How the values were obtained:
[1] = test system: primary human NPM1c-AML blasts; experiment: Immune-deficient mice xenografted with primary human NPM1c-AML blasts; assay type: in vivo
Text: FIG. 2: ActD enhances Venetoclax anti-leukaemic effects. Response to ActD and/or Venetoclax in a transplantable AML model initiated by NPM1c+IDH1^R132H mutation. A, GFP abundance in bone marrow samples collected at treatment interruption and B, survival curve, n=2. C, abundance of human AML cells in xenografted mice treated for two weeks. Combined therapy induces AML regression.
(§1) We first assessed ActD response in primary cells.
(§2) We therefore explored the ActD/Venetoclax interaction in different NPM1c-driven AML models in vivo. […] Thus, ActD and Venetoclax dramatically synergized to clear AMLs in vivo.

PML NBs = experiment: PML nuclear body (NB) reformation ex vivo; assay type: cell-based; conditions: for effect of ROS scavenger on ActD NB-restoration: AML2-NPM1c cells
Text: (§3) Conversely, we used Thenoyl-trifluoroacetone (TTFA) a well-characterized inhibitor of mitochondrial complex II and major inducer of ROS.

leukemic blasts = experiment: AML patient treated with a single ActD course; assay type: in vivo
AML3 cells [2] = experiment: Senescence markers and clonogenic activity in AML3 cells; assay type: cell-based; conditions: for clonogenic activity: AML3 cells
Text: as §3

murine NPM1c-driven AML = experiment: Murine NPM1c-driven AML model; conditions: mouse, in vivo
Text: as §1, §2

NPM1c-AML = conditions: Half of NPM1c-AML patients; single agent; cited from earlier work
complex II = molecular target: T1, complex II (Homo sapiens, UniProt P31040); experiment: Electron transport chain complex activity; assay type: biochemical; conditions: but not complex I or IV; primarily in NPM1c-expressing cells
T1 construct: endogenous in cells; host or cells: NPM1c-expressing cells (not further specified; the same paragraph mentions AML3, AML2-NPM1c and NPM1c-ES cells)

TP53 [3] = test system: TP53
AML3 cells [4] = experiment: Mitochondrial network and function in AML3 cells; assay type: cell-based
Text: as §3

AML2-NPM1c cells = experiment: Growth of isogenic AML2-NPM1c / AML2-NPM1 cells; assay type: cell-based; conditions: AML2-NPM1c vs AML2-NPM1 cells; inhibition of JAK1/2 signalling
Text: TFAM reduction may reflect transcriptional down-regulation of PGC1A by IFN signalling^16. Importantly, stable NPM1c expression drove PGC1α hyperacetylation resulting in its functional inactivation, possibly through PML NB downregulation (data not shown)^10. These altered mitochondria and release of mtDNA into the cytoplasm activate multiple downstream intracellular stress pathway, particularly IFN and NFKB targets (data not shown), at least in part through cGAS (cyclic GMP-AMP synthase) activation and cGAMP production (data not shown). Other stress pathways, such as oxidative stress or unfolded protein response were also activated (data not shown), resulting in decreased protein synthesis (data not shown). Western blot analyses comparing AML2-NPM1c to AML2-NPM1 cells validated activation of multiple stress pathways by the NPM1c oncogene, including the up-regulation of key TP53-repressed metabolic enzymes (data not shown). As expected, these mitochondrial alterations yielded decreased ATP/ADP+AMP or GTP/GDP+GMP ratios, reflecting metabolic stress (data not shown). Stress responses could directly or indirectly favour leukaemogenesis^20-22. […] These mitochondrial defects may constitute targetable intrinsic weaknesses and, for example, account for the exquisite clinical sensitivity of NPM1c-AMLs to Bcl2 antagonists^23.

TP53 [5] = experiment: Doxorubicin mitochondrial rounding and TP53 activation; assay type: cell-based
Text: Targeting mitochondrial function by antibiotics was proposed as a therapeutic option for cancer^35,36 and mitochondrial status modulates chemotherapy response^37,38. Actinomycin D drives mitochondrial alterations prior to detectable activation of the ribosomal or DNA damage checkpoints. Actinomycin D inhibits complex II activity, which may reflect its structural similarity with FAD, one of its electron transporters. This may explain how ActD induces ROS, immediate early response genes, sensitizes cells to apoptosis or initiates immunogenic cell death^39. Complex II is important in hematopoietic progenitors^40, and regulated by PML^41, contributing to ActD therapeutic index in AML blasts. In vivo, ActD triggered features of mitochondria-induced senescence^26. Downstream of acute mitochondrial stress, our experiments reveal a key role of ROS signalling and PML/TP53 senescence (data not shown), drawing an unexpected similarity with acute promyelocytic leukemia, where NBs reformation drive response to arsenic therapy^12,42. In that respect, complex II poisoning has activity in APL models^43. […] Clinically, as both antineoplastic antibiotics (e.g. ActD) and BCL-2 inhibitors (e.g. Venetoclax) have remarkable clinical activity in NPM1c-AMLs, the dramatic synergy outlined here should rapidly be evaluated in patients.

[6] = leukemic blasts from peripheral blood

T1 sequence (P31040 43-664): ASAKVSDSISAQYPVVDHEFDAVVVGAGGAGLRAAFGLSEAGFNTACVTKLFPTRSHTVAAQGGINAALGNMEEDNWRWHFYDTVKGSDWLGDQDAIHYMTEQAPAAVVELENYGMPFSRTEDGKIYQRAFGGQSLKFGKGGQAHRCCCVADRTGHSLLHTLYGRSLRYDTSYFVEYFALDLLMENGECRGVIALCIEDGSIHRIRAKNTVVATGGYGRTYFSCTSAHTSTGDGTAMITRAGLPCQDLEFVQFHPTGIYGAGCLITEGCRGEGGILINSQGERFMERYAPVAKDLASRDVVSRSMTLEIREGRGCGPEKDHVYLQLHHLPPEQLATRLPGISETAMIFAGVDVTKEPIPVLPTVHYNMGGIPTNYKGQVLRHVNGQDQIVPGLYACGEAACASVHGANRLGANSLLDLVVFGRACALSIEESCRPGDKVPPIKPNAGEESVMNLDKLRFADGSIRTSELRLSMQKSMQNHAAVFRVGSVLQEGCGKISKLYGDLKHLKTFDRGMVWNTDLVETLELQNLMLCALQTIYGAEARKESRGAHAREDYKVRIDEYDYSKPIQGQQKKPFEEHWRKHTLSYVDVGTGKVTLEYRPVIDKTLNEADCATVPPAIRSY
T1 sequence (P21912 29-280 partner): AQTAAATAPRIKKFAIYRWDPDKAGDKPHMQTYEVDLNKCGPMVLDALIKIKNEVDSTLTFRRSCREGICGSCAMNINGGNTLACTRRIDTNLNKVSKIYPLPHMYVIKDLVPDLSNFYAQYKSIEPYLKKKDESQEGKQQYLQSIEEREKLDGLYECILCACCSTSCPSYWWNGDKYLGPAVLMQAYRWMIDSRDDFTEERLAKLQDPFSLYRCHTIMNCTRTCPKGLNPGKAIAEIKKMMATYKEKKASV
T1 sequence (Q99643 30-169 partner): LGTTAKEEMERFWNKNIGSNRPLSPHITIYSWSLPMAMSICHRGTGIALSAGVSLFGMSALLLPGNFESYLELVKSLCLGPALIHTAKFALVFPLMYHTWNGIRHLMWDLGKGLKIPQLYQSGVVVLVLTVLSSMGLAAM
T1 sequence (O14521 57-159 partner): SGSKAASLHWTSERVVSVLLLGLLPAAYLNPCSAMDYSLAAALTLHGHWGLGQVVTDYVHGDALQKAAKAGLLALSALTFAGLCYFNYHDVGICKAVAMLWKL

**Q.** For `Cc1c2oc3c(C)ccc(C(=O)N[C@@H]4C(=O)N[C@H](C(C)C)C(=O)N5CCC[C@H]5C(=O)N(C)CC(=O)N(C)[C@@H](C(C)C)C(=O)O[C@@H]4C)c3nc-2c(C(=O)N[C@@H]2C(=O)N[C@H](C(C)C)C(=O)N3CCC[C@H]3C(=O)N(C)CC(=O)N(C)[C@@H](C(C)C)C(=O)O[C@@H]2C)c(N)c1=O` [ActD, actinomycin D] (I: T[dV]P[Sar][NMeV] / II: T[dV]P[Sar][NMeV]; ester I:1-I:C, II:1-II:C; linker I:N-II:N via Actinocin(9to1)), which leukemic burden ([1]; after 5 days of ActD therapy) is on record?
**A.** dramatically reduced the leukemic burden

**Q.** What about the “stabilization of human TP53 vs mouse Trp53” value ([1]; two xenografted mice) of the same compound?
**A.** rapidly triggered selective stabilization of human TP53

**Q.** What about the “PML NB reformation” value (PML NBs; AML2-NPM1c, AML3 cells or NPM1c-transfected MEFs) of the same compound?
**A.** very rapid NB reformation

**Q.** What about the “PML NB restoration” value (PML NBs; primary NPM1c-AML blasts treated ex vivo) of the same compound?
**A.** PML NB restoration was also observed

**Q.** What about the blast decrease (leukemic blasts; after a single course of daily ActD injections for 5 days) of the same compound?
**A.** 10^4 fold

**Q.** And the “completion of in vivo reformation of PML NBs” value (leukemic blasts; [6])?
**A.** ≤ 12 h

**Q.** What about the “start of in vivo reformation of PML NBs” value (leukemic blasts; [6]) of the same compound?
**A.** 6 h

**Q.** And the clonogenic activity (AML3 cells [2])?
**A.** loss of clonogenic activity

**Q.** What about the “senescence signs (TP53 activation, p21, Serpine-1, cGAMP, SA-β-Gal)” value (AML3 cells [2]; NPM1c-positive AML3 cells) of the same compound?
**A.** multiple signs of senescence

**Q.** And the “AML response with leukaemia-selective TP53 activation” value (murine NPM1c-driven AML)?
**A.** AML regression and blast differentiation

**Q.** And the clinical response (NPM1c-AML)?
**A.** dramatic responses

**Q.** What about the “complex II activity” value (complex II) of the same compound?
**A.** further inhibited the basal low level of complex II

**Q.** And the TP53 activation (TP53 [3]; AML3 cells, ex vivo, 5 nM)?
**A.** triggered rapid TP53 activation

**Q.** And the TP53 stabilization (TP53 [3]; normal bone marrow progenitors in vivo or ex vivo, human or mouse primary fibroblasts (WI-38, MEFs) ex vivo, low doses)?
**A.** no significant TP53 stabilization

**Q.** And the mitochondrial network (AML3 cells [4]; AML3 and NPM1c-ES cells, as early as 1h)?
**A.** fragmented the mitochondrial network

**Q.** With `N#CCNC(=O)c1ccc(-c2ccnc(Nc3ccc(N4CCOCC4)cc3)n2)cc1` [CYT387] as the compound, how does the growth (AML2-NPM1c cells) read?
**A.** inhibited growth, more potently in AML2-NPM1c than in AML2-NPM1 cells

**Q.** What does the source list for `COc1cccc2c1C(=O)c1c(O)c3c(c(O)c1C2=O)C[C@@](O)(C(=O)CO)C[C@@H]3O[C@H]1C[C@H](N)[C@H](O)[C@H](C)O1` [Doxorubicin]?
**A.** TP53 activation (TP53 [5]): PML-dependent, NPM1c-enhanced and NAC-reversible TP53 activation; mitochondrial morphology (TP53 [5]): triggered immediate mitochondrial rounding

**Q.** With `CC(=O)N[C@@H](CS)C(=O)O` [N-acetyl cysteine] as the compound, how does the “effect of ROS scavenger on ActD NB-restoration” value (PML NBs) read?
**A.** completely blocked

**Q.** For `O=C(CC(=O)C(F)(F)F)c1cccs1` [TTFA, Thenoyl-trifluoroacetone], which NB formation (PML NBs; NPM1c-transfected stable GFP-PML-III MEFs) is on record?
**A.** restored NB formation

**Q.** And the clonogenic activity (AML3 cells [2])?
**A.** decreased clonogenic activity

**Q.** And the mitochondrial superoxide (AML3 cells [4]; AML3 cells)?
**A.** massively induced mitochondrial superoxide

**Q.** Which “effect of ROS scavenger on ActD NB-restoration” value (PML NBs) does the source give for `N[C@@H](CCC(=O)N[C@@H](CS)C(=O)NCC(=O)O)C(=O)O` [glutathione] here?
**A.** completely blocked

**Q.** For venetoclax, which mitochondrial effects (AML3 cells [4]; AML3 cells, Venetoclax alone) is on record?
**A.** induced mitochondrial fragmentation, reduction of mitochondrial membrane potential, production of ROS and leakage of mtDNA to the cytoplasm

Reference: US20230270816A1, “COMBINATION OF ANTINEOPLASTIC ANTIBIOTICS AND BCL-2 INHIBITORS FOR THE TREATMENT OF NPM-1-DRIVEN ACUTE MYELOID LEUKEMIA (AML)” (INSERM (INSTITUTE NATIONAL DE LA SANTÉ ET DE LA RECHERCHE …, priority 2020, published 2023)
